# Results: article PMC3128788 (Nuclear medicine and biology, 2011)
# Marks after values point to notes of the source that are not given here.
# Format: in vivo, male Sprague Dawley rats
# Details: for Blood %ID/gram, 5 min CycA / Bone %ID/gram, 5 min CycA / Fat %ID/gram, 5 min CycA / Kidney %ID/gram, 5 min CycA / Liver %ID/gram, 5 min CycA / Lung %ID/gram, 5 min CycA / Muscle %ID/gram, 5 min CycA / Total brain %ID/gram, 5 min CycA / Blood %ID/gram, 30 min CycA / Bone %ID/gram, 30 min CycA / Fat %ID/gram, 30 min CycA / Kidney %ID/gram, 30 min CycA / Liver %ID/gram, 30 min CycA / Lung %ID/gram, 30 min CycA / Muscle %ID/gram, 30 min CycA / Total brain %ID/gram, 30 min CycA: CycA […] mg/kg i.v. 30 min before tracer; for Blood %ID/gram, 30 min CycA / Bone %ID/gram, 30 min CycA / Fat %ID/gram, 30 min CycA / Kidney %ID/gram, 30 min CycA / Liver %ID/gram, 30 min CycA / Lung %ID/gram, 30 min CycA / Muscle %ID/gram, 30 min CycA / Total brain %ID/gram, 30 min CycA / Blood %ID/gram, 30 min No Rx / Bone %ID/gram, 30 min No Rx / Fat %ID/gram, 30 min No Rx / Kidney %ID/gram, 30 min No Rx / Liver %ID/gram, 30 min No Rx / Lung %ID/gram, 30 min No Rx / Muscle %ID/gram, 30 min No Rx / Total brain %ID/gram, 30 min No Rx: 30 min post-injection; for Increase in brain uptake after CycA administration at 5 min: 5 min post injection; for Bone activity levels from 5 min to 30 min (metabolic defluorination): normal rats; for Blood CycA:No Rx / Bone CycA:No Rx / Fat CycA:No Rx / Kidney CycA:No Rx / Liver CycA:No Rx / Lung CycA:No Rx / Muscle CycA:No Rx / Total brain CycA:No Rx: ratio of tracer uptake in CycA versus control group 30 min post injection
# [1] = CycA pretreated versus control rats
# [2] = control rats, i.v., 5 min post-injection
compound,measurement,setting,value
"CN(C)c1ccc(C(=O)NCCCCN2CCN(c3ccccc3OCC[18F])CC2)cc1 [[^18F]8, 4-(dimethylamino)-N-(4-(4-(2-(2-[^18F]fluoroethoxy)phenyl)piperazin-1-yl)butyl)benzamide]","Blood %ID/gram, 5 min CycA",5 min post-injection,0.109 ± 0.009 %ID/gram
same,"Bone %ID/gram, 5 min CycA",5 min post-injection,0.288 ± 0.008 %ID/gram
same,"Fat %ID/gram, 5 min CycA",5 min post-injection,0.116 ± 0.004 %ID/gram
same,"Kidney %ID/gram, 5 min CycA",5 min post-injection,2.235 ± 0.175 %ID/gram
same,"Liver %ID/gram, 5 min CycA",5 min post-injection,1.770 ± 0.584 %ID/gram
same,"Lung %ID/gram, 5 min CycA",5 min post-injection,1.893 ± 0.158 %ID/gram
same,"Muscle %ID/gram, 5 min CycA",5 min post-injection,0.184 ± 0.014 %ID/gram
same,"Total brain %ID/gram, 5 min CycA",5 min post-injection,0.895 ± 0.063 %ID/gram
same,"Blood %ID/gram, 30 min CycA",,0.062 ± 0.018 %ID/gram
same,"Bone %ID/gram, 30 min CycA",,0.599 ± 0.152 %ID/gram
same,"Fat %ID/gram, 30 min CycA",,0.115 ± 0.030 %ID/gram
same,"Kidney %ID/gram, 30 min CycA",,2.548 ± 0.490 %ID/gram
same,"Liver %ID/gram, 30 min CycA",,2.431 ± 0.365 %ID/gram
same,"Lung %ID/gram, 30 min CycA",,1.154 ± 0.102 %ID/gram
same,"Muscle %ID/gram, 30 min CycA",,0.154 ± 0.038 %ID/gram
same,"Total brain %ID/gram, 30 min CycA",,0.970 ± 0.077 %ID/gram
same,Increase in brain uptake after CycA administration at 5 min,[1],5.0 fold
same,"Blood %ID/gram, 5 min No Rx",[2],0.079 ± 0.006 %ID/gram
same,"Bone %ID/gram, 5 min No Rx",[2],0.490 ± 0.033 %ID/gram
same,"Fat %ID/gram, 5 min No Rx",[2],0.101 ± 0.046 %ID/gram
same,"Kidney %ID/gram, 5 min No Rx",[2],2.939 ± 0.544 %ID/gram
same,"Liver %ID/gram, 5 min No Rx",[2],2.124 ± 0.113 %ID/gram
same,"Lung %ID/gram, 5 min No Rx",[2],2.432 ± 0.211 %ID/gram
same,"Muscle %ID/gram, 5 min No Rx",[2],0.099 ± 0.007 %ID/gram
same,"Total brain %ID/gram, 5 min No Rx",[2],0.178 ± 0.030 %ID/gram
same,"Blood %ID/gram, 30 min No Rx","control rats, i.v.",0.046 ± 0.008 %ID/gram
same,"Bone %ID/gram, 30 min No Rx","control rats, i.v.",0.882 ± 0.153 %ID/gram
same,"Fat %ID/gram, 30 min No Rx","control rats, i.v.",0.095 ± 0.017 %ID/gram
same,"Kidney %ID/gram, 30 min No Rx","control rats, i.v.",2.710 ± 0.235 %ID/gram
same,"Liver %ID/gram, 30 min No Rx","control rats, i.v.",2.134 ± 0.313 %ID/gram
same,"Lung %ID/gram, 30 min No Rx","control rats, i.v.",1.553 ± 0.179 %ID/gram
same,"Muscle %ID/gram, 30 min No Rx","control rats, i.v.",0.111 ± 0.006 %ID/gram
same,"Total brain %ID/gram, 30 min No Rx","control rats, i.v.",0.180 ± 0.006 %ID/gram
same,Bone activity levels from 5 min to 30 min (metabolic defluorination),,two-fold increase
same,Blood CycA:No Rx,,1.35
same,Bone CycA:No Rx,,0.68
same,Fat CycA:No Rx,,1.20
same,Kidney CycA:No Rx,,0.94
same,Liver CycA:No Rx,,1.14
same,Lung CycA:No Rx,,0.74
same,Muscle CycA:No Rx,,1.38
same,Total brain CycA:No Rx,,5.38 ^g
"COc1ccccc1N1CCN(CCCCNC(=O)c2ccc(CC[18F])cc2)CC1 [[^18F]7, 4-(2-[^18F]-fluoroethyl)-N-(4-(4-(2-methoxyphenyl)piperazin-1-yl)butyl)benzamide]","Blood %ID/gram, 5 min CycA",5 min post-injection,0.156 ± 0.033 %ID/gram
same,"Bone %ID/gram, 5 min CycA",5 min post-injection,0.232 ± 0.015 %ID/gram
same,"Fat %ID/gram, 5 min CycA",5 min post-injection,0.062 ± 0.017 %ID/gram
same,"Kidney %ID/gram, 5 min CycA",5 min post-injection,1.782 ± 0.242 %ID/gram
same,"Liver %ID/gram, 5 min CycA",5 min post-injection,1.790 ± 0.286 %ID/gram
same,"Lung %ID/gram, 5 min CycA",5 min post-injection,1.423 ± 0.262 %ID/gram
same,"Muscle %ID/gram, 5 min CycA",5 min post-injection,0.158 ± 0.055 %ID/gram
same,"Total brain %ID/gram, 5 min CycA",5 min post-injection,0.421 ± 0.115 %ID/gram
same,"Blood %ID/gram, 30 min CycA",,0.178 ± 0.018 %ID/gram
same,"Bone %ID/gram, 30 min CycA",,0.168 ± 0.016 %ID/gram
same,"Fat %ID/gram, 30 min CycA",,0.069 ± 0.011 %ID/gram
same,"Kidney %ID/gram, 30 min CycA",,0.898 ± 0.076 %ID/gram
same,"Liver %ID/gram, 30 min CycA",,1.870 ± 0.184 %ID/gram
same,"Lung %ID/gram, 30 min CycA",,0.563 ± 0.016 %ID/gram
same,"Muscle %ID/gram, 30 min CycA",,0.147 ± 0.006 %ID/gram
same,"Total brain %ID/gram, 30 min CycA",,0.271 ± 0.068 %ID/gram
same,Increase in brain uptake after CycA administration at 5 min,[1],6.3 fold
same,Increase in brain uptake after CycA administration at 30 min,"CycA pretreated versus control rats, 30 min post injection",2.7 fold
same,"Blood %ID/gram, 5 min No Rx",[2],0.133 ± 0.018 %ID/gram
same,"Bone %ID/gram, 5 min No Rx",[2],0.243 ± 0.041 %ID/gram
same,"Fat %ID/gram, 5 min No Rx",[2],0.084 ± 0.036 %ID/gram
same,"Kidney %ID/gram, 5 min No Rx",[2],1.582 ± 0.293 %ID/gram
same,"Liver %ID/gram, 5 min No Rx",[2],2.035 ± 0.578 %ID/gram
same,"Lung %ID/gram, 5 min No Rx",[2],1.182 ± 0.086 %ID/gram
same,"Muscle %ID/gram, 5 min No Rx",[2],0.107 ± 0.017 %ID/gram
same,"Blood %ID/gram, 30 min No Rx","control rats, i.v.",0.167 ± 0.018 %ID/gram
same,"Bone %ID/gram, 30 min No Rx","control rats, i.v.",0.164 ± 0.018 %ID/gram
same,"Fat %ID/gram, 30 min No Rx","control rats, i.v.",0.086 ± 0.013 %ID/gram
same,"Kidney %ID/gram, 30 min No Rx","control rats, i.v.",0.952 ± 0.100 %ID/gram
same,"Liver %ID/gram, 30 min No Rx","control rats, i.v.",2.169 ± 0.113 %ID/gram
same,"Lung %ID/gram, 30 min No Rx","control rats, i.v.",0.668 ± 0.057 %ID/gram
same,"Muscle %ID/gram, 30 min No Rx","control rats, i.v.",0.143 ± 0.011 %ID/gram
same,"Total brain %ID/gram, 30 min No Rx","control rats, i.v.",0.098 ± 0.012 %ID/gram
same,Bone activity levels from 5 min to 30 min (metabolic defluorination),,No accumulation
same,Blood CycA:No Rx,,1.06
same,Bone CycA:No Rx,,1.02
same,Fat CycA:No Rx,,0.81
same,Kidney CycA:No Rx,,0.94
same,Liver CycA:No Rx,,0.86 ^e
same,Lung CycA:No Rx,,0.84 ^d
same,Muscle CycA:No Rx,,1.03
same,Total brain CycA:No Rx,,2.77 ^f
